In paper PMC12473906, “Comparing the Altis RepliGut Organoid System to MDCK Monolayers in Predicting the Oral Absorption of Lenalidomide” (Pharmaceutics, 2025):
“Also recorded” adds a separate entry of the source.

Legend:
[1] = target: T1, BCRP (Homo sapiens, UniProt Q9UNQ0); assay: Bidirectional permeability in gMDCK cells overexpressing human BCRP (gMDCK-BCRP); type: in vitro ADME
T1 construct: expressed in transfected cells; host or cells: gMDCK (P-gp-knockout Madin-Darby Canine Kidney cells), puromycin selection
T1 sequence (Q9UNQ0 1-655): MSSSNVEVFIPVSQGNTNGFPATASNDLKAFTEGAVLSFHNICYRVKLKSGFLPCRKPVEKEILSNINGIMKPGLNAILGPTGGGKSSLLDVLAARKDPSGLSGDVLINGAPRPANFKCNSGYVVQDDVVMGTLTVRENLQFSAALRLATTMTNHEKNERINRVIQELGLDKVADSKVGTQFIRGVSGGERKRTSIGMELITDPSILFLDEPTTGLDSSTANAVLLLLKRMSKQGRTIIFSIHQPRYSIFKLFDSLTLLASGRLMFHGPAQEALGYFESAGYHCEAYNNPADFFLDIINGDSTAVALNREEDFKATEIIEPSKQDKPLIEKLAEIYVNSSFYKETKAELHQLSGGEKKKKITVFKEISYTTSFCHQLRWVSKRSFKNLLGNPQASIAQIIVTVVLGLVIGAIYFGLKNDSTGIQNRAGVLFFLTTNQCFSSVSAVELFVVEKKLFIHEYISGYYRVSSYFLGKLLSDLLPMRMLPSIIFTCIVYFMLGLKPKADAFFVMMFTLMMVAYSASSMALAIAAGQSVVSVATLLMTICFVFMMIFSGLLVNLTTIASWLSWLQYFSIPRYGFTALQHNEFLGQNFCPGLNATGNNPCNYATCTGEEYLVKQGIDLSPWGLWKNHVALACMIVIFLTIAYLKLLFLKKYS
Experimental: gMDCK cells were maintained in Dulbecco’s Modified Eagle’s Medium (DMEM) supplemented with Gibco’s MEM amino acids solution (1 X), penicillin (100 units/mL), streptomycin ([…]), and 10% fetal bovine serum and in a humidified, 37 °C, 5% CO2 environment as previously described. Efflux transporter-expressing gMDCK cells, gMDCK-P-gp and gMDCK-BCRP, were cultured in the above-mentioned medium with addition of puromycin (2 µg/mL). All cells were passaged at approximately 80% confluency in T-175 flasks. For permeability assays, gMDCK, gMDCK-P-gp, and gMDCK-BCRP cells were seeded on 96 transwell plates (approximately 40,000 cells/well) and allowed to grow for 48 h in a 37 °C, 5% CO2 environment. Digitonin (10–40 mg/L) was included in some experiments to loosen tight junctions to explore paracellular permeability. TEER values were measured on the day of the experiment using an EVOM^TM Auto (World Precision Instruments, Sarasota, FL, USA).
Lenalidomide dosing solutions (1–500 µM) were diluted from DMSO stock (500 mM) with HEPES-buffered HBSS (with Ca^2+ and Mg^2+, 10 mM HEPES, pH 7.4) + 20 µM Lucifer yellow resulting in a final DMSO content of 0.2%. Lucifer yellow was measured fluorometrically (Ex/Em 428/532 nm) to assess tight junctions/paracellular transport. Permeability of lenalidomide was assessed bidirectionally in both in vitro models over three hours, and cell monolayers were collected at the end of the experiment.
Briefly, for assessing apical to basolateral (A to B) permeability, 150 uL of lenalidomide dosing solutions was added to apical side of the transwell, and 250 uL of HEPES-buffered HBSS without Lucifer yellow was added to basolateral side. For evaluating basolateral to apical (B to A) permeability, 250 uL of dosing solutions was added to the basolateral side, and 150 uL of HEPES-buffered HBSS without Lucifer yellow was added to the apical side. An amount of 10 µL was sampled from the dosing side of the transwell at the beginning and the end of the experiment. An amount of 25 µL was sampled from the receiver side at 1, 2, and 3 h.
Apparent permeability (Papp) was calculated according to the following equation: Papp = (dQ/dt)/(A * C), where dQ/dt is the amount of drug that crosses the membrane per unit of time, A is the surface area of the membrane through which the drug is permeating (0.143 cm^2), and C is the initial concentration added to cells. The efflux ratio was calculated according to the following equation:(4) Efflux ratio= Papp basolateral to apical/Papp apical to basolateral

[2] = tested on: MDCK cells and other traditional in vitro systems; settings: cited from earlier work
[3] = gMDCK (P-gp knockout MDCK) monolayer permeability assay; settings: dog, MDCK
[4] = Lenalidomide Permeability in gMDCK Cells, FaSSIF
[5] = Lenalidomide Permeability in gMDCK Cells, FeSSIF
[6] = pH 7.4, Lenalidomide Permeability in gMDCK Cells, 4% BSA in receiver compartment
[7] = pH 7.4, Lenalidomide Permeability in gMDCK Cells, shaking (1000 rpm)
[8] = pH 7.4, Lenalidomide Permeability in gMDCK Cells, typical assay conditions

**Q.** With `Nc1cccc2c1CN(C1CCC(=O)NC1=O)C2=O` (stereo not shown) [Lenalidomide] as the molecule, how does the BCRP substrate ([1]; gMDCK BCRP overexpressing cells and organoids) read?
**A.** substrate for both transporters; also recorded: substrate of both P-gp and BCRP

**Q.** What about the Papp A→B at 3 h ([1]; human, pH 7.4, gMDCK-BCRP) of the same molecule?
**A.** 0.15 ×10⁻⁶ cm/s

**Q.** What about the Papp B→A at 3 h ([1]; human, pH 7.4, gMDCK-BCRP) of the same molecule?
**A.** 2.4 ×10⁻⁶ cm/s

**Q.** And the efflux ratio at 3 h ([1]; human, pH 7.4, gMDCK-BCRP)?
**A.** 16

**Q.** What about the BCS class [2] of the same molecule?
**A.** 3

**Q.** What about the In vitro permeability [2] of the same molecule?
**A.** Low

**Q.** And the Papp at 3 h, 10 µM [3, 4]?
**A.** 0.27 ×10⁻⁶ cm/s

**Q.** And the Papp at 3 h, 50 µM [3, 4]?
**A.** 0.28 ×10⁻⁶ cm/s

**Q.** What about the Papp at 3 h, 250 µM [3, 4] of the same molecule?
**A.** 0.17 ×10⁻⁶ cm/s

**Q.** And the Papp at 3 h, 500 µM ([3]; Lenalidomide Permeability in gMDCK Cells, FaSSIF, 500 uM)?
**A.** 0.13 ×10⁻⁶ cm/s

**Q.** And the Papp at 3 h, 10 µM [3, 5]?
**A.** 0.07 ×10⁻⁶ cm/s

**Q.** And the Papp at 3 h, 50 µM [3, 5]?
**A.** 0.14 ×10⁻⁶ cm/s

**Q.** And the Papp at 3 h, 250 µM [3, 5]?
**A.** 0.1 ×10⁻⁶ cm/s

**Q.** And the Papp at 3 h, 500 µM ([3]; Lenalidomide Permeability in gMDCK Cells, FeSSIF, 500 uM)?
**A.** 0.14 ×10⁻⁶ cm/s

**Q.** And the Papp A→B at 3 h ([3]; pH 7.4)?
**A.** 0.21 ×10⁻⁶ cm/s

**Q.** And the Papp B→A at 3 h ([3]; pH 7.4)?
**A.** 0.13 ×10⁻⁶ cm/s

**Q.** What about the efflux ratio at 3 h ([3]; pH 7.4) of the same molecule?
**A.** 0.62

**Q.** And the Papp at 3 h, 10 µM [3, 6]?
**A.** 0.12 ×10⁻⁶ cm/s

**Q.** What about the Papp at 3 h, 50 µM [3, 6] of the same molecule?
**A.** 0.16 ×10⁻⁶ cm/s

**Q.** What about the Papp at 3 h, 250 µM [3, 6] of the same molecule?
**A.** 0.15 ×10⁻⁶ cm/s

**Q.** And the Papp at 3 h, 500 µM ([3]; pH 7.4, Lenalidomide Permeability in gMDCK Cells, 4% BSA in receiver compartment, 500 uM)?
**A.** 0.15 ×10⁻⁶ cm/s

**Q.** And the Papp at 3 h, 10 µM [3, 7]?
**A.** 0.03 ×10⁻⁶ cm/s

**Q.** And the Papp at 3 h, 50 µM [3, 7]?
**A.** 0.03 ×10⁻⁶ cm/s

**Q.** And the Papp at 3 h, 250 µM [3, 7]?
**A.** 0.14 ×10⁻⁶ cm/s

**Q.** And the Papp at 3 h, 500 µM ([3]; pH 7.4, Lenalidomide Permeability in gMDCK Cells, shaking (1000 rpm), 500 uM)?
**A.** 0.21 ×10⁻⁶ cm/s

**Q.** And the Papp at 3 h, 10 µM [3, 8]?
**A.** 0.19 ×10⁻⁶ cm/s

**Q.** What about the Papp at 3 h, 50 µM [3, 8] of the same molecule?
**A.** 0.22 ×10⁻⁶ cm/s

**Q.** And the Papp at 3 h, 250 µM [3, 8]?
**A.** 0.24 ×10⁻⁶ cm/s

**Q.** And the Papp at 3 h, 500 µM ([3]; pH 7.4, Lenalidomide Permeability in gMDCK Cells, typical assay conditions, 500 uM)?
**A.** 0.24 ×10⁻⁶ cm/s

**Q.** What about the Papp at 3 h ([3]; pH 7.4, apparent permeability (Papp), gMDCK cell monolayers, independent of concentration) of the same molecule?
**A.** ~0.2 ×10⁻⁶ cm/s

**Q.** And the Papp at 3 h, 500 µM ([3]; pH 7.4, gMDCK Papp, lenalidomide 500 µM, apical to basolateral, n=3 biological replicates)?
**A.** 0.21 ×10⁻⁶ cm/s
